Data taken from patent EP4722195A1, “PH-SENSITIVE CATIONIC LIPID AND LIPID NANOPARTICLES” (National University Corporation Hokkaido University, priority 2023, dated 2024).
Where two headings read alike, the source gives them in different places.

Key:
[1] = Average particle size and polydispersity index of lipid nanoparticles (dynamic light scattering); format: physicochemical
Experimental: (§1) The average particle size (number average value), ζ-average particle size, and polydispersity index (PdI) of the lipid nanoparticles in PBS(-) (pH 7.4), and the zeta potential in 10 mM HEPES buffer (pH 7.4) were measured using an analyzer "Zetasizer Nano ZS ZEN3600" (manufactured by Malvern) utilizing dynamic light scattering.

[2] = Zeta potential of lipid nanoparticles; format: physicochemical
Experimental: as §1

[3] = Encapsulation rate of lipid nanoparticles (Ribogreen); format: physicochemical
Experimental: The encapsulation rate of the lipid nanoparticles was determined by measuring the amount of encapsulated nucleic acid (mRNA) using Ribogreen (manufactured by Life Technologies), which is an RNA intercalator. The mRNA amount was quantified based on a calibration curve prepared from a series of diluted mRNA solutions at known concentrations.
Specifically, 10 mM HEPES buffer (pH 7.4), 10 w/v% Triton X-100, and Ribogreen were mixed at 978.8 µL, 20 µL, and 1.25 µL per 10 wells, respectively, to obtain a Triton(+) buffer. A Triton(-) buffer was obtained in replacing Triton X-100 with 10 mM HEPES buffer (pH 7.4). 100 µL/well of the sample was added to a black 96-well plate for fluorescence measurement, and 100 µL/well of Triton(+) buffer or Triton(-) buffer was added. After the plate was gently shaken on a shaking incubator (SI-300, manufactured by AS ONE) (700 rpm, 30 seconds), the fluorescence intensity of each well was measured using a microplate reader (VARIOSKAN LUX, manufactured by Thermo Fisher Scientific) (wavelength Ex/Em=500 nm/525 nm), and the nucleic acid encapsulation rate (%) was calculated.

liver = assay: EGFP expression in liver tissue sections of mice administered EGFP mRNA-loaded lipid nanoparticles (confocal microscopy); format: in vivo, Balb/c mice; settings: Example 27, Fig. 6; EGFP mRNA-loaded lipid nanoparticles TxT/DSPC/chol/PEG-DMG=50/3/47/1.5 (mol%); 24 hours post-administration
Experimental: Subsequently, each EGFP mRNA-loaded lipid nanoparticle was administered to Balb/c mice at a dose of 0.2 mg mRNA/kg. At 23 hours and 50 minutes post-administration, fluorescently labeled lectin (DyLight-649 Lycopersicon (Tomato) Lectin) was intravenously injected via the tail vein at 40 µg/mouse to fluorescently label vascular endothelial cells. At 24 hours after administration of the lipid nanoparticles, the mice were euthanized, and their livers were collected to prepare tissue sections. For nuclear staining, the tissue sections were immersed in a nuclear staining solution (1 µg/mL Hoechst 33342 dissolved in PBS(-)), cooled on ice, and incubated for at least 30 minutes in the dark. The stained tissue sections were then observed using a confocal laser scanning microscope. Subsequently, in the same manner as Example 26, each EGFP mRNA-loaded lipid nanoparticle was administered to Balb/c mice. At 23 hours and 50 minutes post-administration, fluorescently labeled lectin was administered. At 24 hours after administration of the lipid nanoparticles, the mice were euthanized, and their livers were collected to prepare tissue sections. Each tissue section was observed using a confocal laser scanning microscope. In the figure, the upper panels show fluorescence images of EGFP, and the lower panels show fluorescence images of vascular endothelial cells (fluorescently labeled lectin).

[4] = lipid nanoparticles, tns
Experimental: (§2) The apparent pKa of the lipid nanoparticles was measured using p-toluenesulfonic acid (TNS). First, TNS (final concentration: 0.75 µM) and lipid nanoparticles (final concentration: 30 µM) were mixed in a buffer (200 mL) adjusted to each pH (pH 3.5 to 9.5). As the buffer, 20 mM citrate buffer, 20 mM sodium phosphate buffer, or 20 mM Tris-HCl buffer containing 130 mM NaCl was used. The fluorescence intensity of the prepared mixture was measured using a fluorescence spectrophotometer (Varioskan Lux, manufactured by Thermo Fisher Scientific) with the settings of λex=321 nm and λem=447 nm. Among the measured values, the highest value and the lowest value were set as 100% and 0% ionization degrees, respectively, and the pH showing a 50% ionization degree was calculated as the apparent pKa. The content ratio (%) of cationically charged pH-sensitive cationic lipid was calculated using the Henderson-Hasselbalch equation.

[5] = Apparent pKa of lipid nanoparticles (TNS)
Experimental: as §2

[6] = Table 3, Fluc mRNA-loaded lipid nanoparticles, TxT/DSPC/chol/PEG-DMG=50/3/47/1.5 (mol%)
[7] = Table 5, EGFP mRNA-loaded lipid nanoparticles, TxT/DSPC/chol/PEG-DMG=50/3/47/1.5 (mol%), total flow rate 3.0 mL/min
[8] = Table 1, Fluc mRNA-loaded lipid nanoparticles, TxT/DSPC/chol/PEG-DMG=50/15/35/1.5 (mol%)
[9] = Table 4, Fluc mRNA-loaded lipid nanoparticles, TxT-5-5A14/DSPC/chol/PEG-DMG=50/3/47/1.5, SM-102, ALC-0315 or MC3/DSPC/chol/PEG-DMG=50/10/40/1.5 (mol%)
[10] = Table 7, hEPO mRNA-loaded lipid nanoparticles, TxT/DSPC/chol/PEG-DMG=50/3/47/1.5, SM-102/DSPC/chol/PEG-DMG=50/10/40/1.5 (mol%)

SMILES	Pdl [1, 6]	number average particle size [1, 6]	ζ-average particle size [1, 6]	Pdl [1, 7]	number average particle size [1, 7]	ζ-average particle size [1, 7]	ζ-potential [2, 6]	ζ-potential [2, 7]	mRNA concentration [3, 6]	mRNA encapsulation rate [3, 6]	mRNA concentration [3, 7]	mRNA encapsulation rate [3, 7]	fluorescence of EGFP in the liver tissues (liver)	Pdl [1, 8]	number average particle size [1, 8]	ζ-average particle size [1, 8]	ζ-potential [2, 8]	mRNA concentration [3, 8]	mRNA encapsulation rate [3, 8]	pKa [5, 6]	other results
CCCCC(CC)CN(CC(CC)CCCC)C(=O)CCCC(=O)OCC(COC(=O)CCCC(=O)N(CC(CC)CCCC)CC(CC)CCCC)(COC(=O)CCCC(=O)N(CC(CC)CCCC)CC(CC)CCCC)NC(=O)CCN1CCCCC1 (stereo not shown) [TxT-5-5A16b]	0.22	61.6 nm	103.7 nm	0.07	59.1 nm	81.4 nm	-11.2 mV	-6.0 mV	0.019 µg/µL	96.0%	0.020 µg/µL	97.9%	fluorescence of EGFP was observed								pKa [4]: 4.99
CCCCC(CC)CNC(=O)CCCC(=O)OCC(COC(=O)CCCC(=O)NCC(CC)CCCC)(COC(=O)CCCC(=O)NCC(CC)CCCC)NC(=O)CCN1CCCCC1 (stereo not drawn) [TxT-5-5A8β, 2-(((5-((2-ethylhexyl)amino)-5-oxopentanoyl)oxy)methyl)-2-(3-(piperidin-1-yl)propanamido)propane-1,3-diyl bis(5-((2-ethylhexyl)amino)-5-oxopentanoate)]														0.30	110.3 nm	255.9 nm	-18.0 mV	0.009 µg/µL	73.4%		
CCCCN(CCCC)C(=O)CCCC(=O)OCC(COC(=O)CCCC(=O)N(CCCC)CCCC)(COC(=O)CCCC(=O)N(CCCC)CCCC)NC(=O)CCN1CCCCC1 [TxT-5-5A8, 2-(((5-(dibutylamino)-5-oxopentanoyl)oxy)methyl)-2-(3-(piperidin-1-yl)propanamido)propane-1,3-diyl bis(5-(dibutylamino)-5-oxopentanoate)]														0.19	61.6 nm	92.9 nm	-5.3 mV	0.005 µg/µL	23.7%		
CCCCCCCCCCN(CCCCCCCCCC)C(=O)CCC(=O)OCC(COC(=O)CCC(=O)N(CCCCCCCCCC)CCCCCCCCCC)(COC(=O)CCC(=O)N(CCCCCCCCCC)CCCCCCCCCC)NC(=O)CCN1CCCCC1 [TxT-5-4A20, 2-(((4-(didecylamino)-4-oxobutanoyl)oxy)methyl)-2-(3-(piperidin-1-yl)propanamido)propane-1,3-diyl bis(4-(didecylamino)-4-oxobutanoate)]	0.08	98.6 nm	136.8 nm	0.08	110.1 nm	140.9 nm	-3.7 mV	-7.4 mV	0.019 µg/µL	98.4%	0.021 µg/µL	96.2%	not detectable							6.49	
CCCCCCCCC(CCCCCC)CNC(=O)CCCC(=O)OCC(COC(=O)CCCC(=O)NCC(CCCCCC)CCCCCCCC)(COC(=O)CCCC(=O)NCC(CCCCCC)CCCCCCCC)NC(=O)CCN1CCCCC1 (stereo not drawn) [TxT-5-5A16β, 2-(((5-((2-hexyldecyl)amino)-5-oxopentanoyl)oxy)methyl)-2-(3-(piperidin-1-yl)propanamido)propane-1,3-diyl bis(5-((2-hexyldecyl)amino)-5-oxopentanoate)]	0.07	69.3 nm	89.4 nm	0.06	80.1 nm	101.1 nm	-7.4 mV	-8.9 mV	0.018 µg/µL	99.2%	0.016 µg/µL	99.1%	fluorescence of EGFP was observed							4.90	
CCCCCCCCCCCOC(=O)CCCCCN(CCO)CCCCCCCC(=O)OC(CCCCCCCC)CCCCCCCC [SM-102, reference compound]																					Pdl [1, 9]: 0.21; number average particle size [1, 9]: 42.0 nm; ζ-average particle size [1, 9]: 70.4 nm; Pdl [1, 10]: 0.19; number average particle size [1, 10]: 38.6 nm; ζ-average particle size [1, 10]: 78.8 nm; ζ-potential [2, 9]: -11.0 mV; ζ-potential [2, 10]: 0.0 mV; mRNA concentration [3, 9]: 0.018 µg/µL; mRNA encapsulation rate [3, 9]: 99.6%; mRNA concentration [3, 10]: 0.015 µg/µL; mRNA encapsulation rate [3, 10]: 97.5%
CCCCCCC(CCCCCC)COC(=O)CCCC(=O)OCC(COC(=O)CCCC(=O)OCC(CCCCCC)CCCCCC)(COC(=O)CCCC(=O)OCC(CCCCCC)CCCCCC)NC(=O)CCN1CCCCC1 [TxT-5-5E14, bis(2-hexyloctyl) O,O'-(2-(((5-((2-hexyloctyl)oxy)-5-oxopentanoyl)oxy)methyl)-2-(3-(piperidin-1-yl)propanamido)propane-1,3-diyl) diglutarate]	0.17	60.2 nm	95.7 nm	0.14	71.1 nm	103.3 nm	-9.7 mV	-11.6 mV	0.022 µg/µL	98.8%	0.024 µg/µL	98.3%	fluorescence of EGFP was observed							5.38	
CCCCCCCCC(CCCCCC)C(=O)OCCCCCCN(CCCCO)CCCCCCOC(=O)C(CCCCCC)CCCCCCCC (stereo not shown) [ALC-0315, reference compound]																					Pdl [1, 9]: 0.13; number average particle size [1, 9]: 57.0 nm; ζ-average particle size [1, 9]: 86.0 nm; ζ-potential [2, 9]: -2.1 mV; mRNA concentration [3, 9]: 0.025 µg/µL; mRNA encapsulation rate [3, 9]: 98.4%; pKa [5, 9]: 6.27
CCCCCN(CCCCC)C(=O)CCCC(=O)OCC(COC(=O)CCCC(=O)N(CCCCC)CCCCC)(COC(=O)CCCC(=O)N(CCCCC)CCCCC)NC(=O)CCN1CCCCC1 [TxT-5-5A10, 2-(((5-(dipentylamino)-5-oxopentanoyl)oxy)methyl)-2-(3-(piperidin-1-yl)propanamido)propane-1,3-diyl bis(5-(dipentylamino)-5-oxopentanoate)]														0.42	213.0 nm	426.0 nm	-36.4 mV	0.012 µg/µL	56.5%		pKa ([5]; Table 1, apparent pKa of Fluc mRNA-loaded lipid nanoparticles, TxT/DSPC/chol/PEG-DMG=50/15/35/1.5 (mol%)): 7.94
